From publication PMC8869731, “KasQ an Epimerase Primes the Biosynthesis of Aminoglycoside Antibiotic Kasugamycin and KasF/H Acetyltransferases Inactivate Its Activity” (Biomedicines, 2022)
Read-outs that look alike come from different tables or passages of the source.

Legend:
KasQ = KasQ (Streptomyces kasugaensis, UniProt A0A0K1H2R6); assay: Isothermal titration calorimetry (ITC) of KasQ wild type versus substrates; format: binding; conditions: for ∆G / ∆H / ∆S / Kd / n: KasQ wild type; for Kd / n: 25 °C, 50 mM HEPES pH 8.0, 100 mM NaCl; for n: ITC binding stoichiometry;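 for all read-outs here: titration of 1 mM substrate into 0.1 mM KasQ, 18 injections spaced 120 s, data fitted to a single-site binding model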
Description: (§3) ITC analyses were carried out at 25 °C using an ITC200 microcalorimeter (MicroCal Inc., Northampton, MA, USA). […] The titration experiment contains 18 injections (2 μL for a duration of 4 s) and each injection was separated by 120 s. The distilled water was filled in the reference cell throughout all titrations. The cell stirring speed was 1000 rpm. The collected raw data were processed in Origin 7.0 (provided by MicroCal) by a non-linear least square method to a single-site binding model.

KasH = KasH (Streptomyces kasugaensis, UniProt A0A0K1H2T0); assay: ITC of KasH versus ligands; conditions: KasH; for n: ITC binding stoichiometry; for n / Kd: 50 mM MOPS pH 7.5, 100 mM NaCl; for ∆G / ∆H / ∆S / Kd: ITC;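 for all read-outs here: isothermal titration calorimetry at 25 °C, 0.1 mM KasH in the cell titrated with 1 mM ligand over 18 injections, data fit with a one-site binding model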
Description: as §3

KasQ E308A = KasQ E308A (Streptomyces kasugaensis, UniProt A0A0K1H2R6, E308A); assay: biochemical; format: binding
Description: (§1) Site-directed mutagenesis was performed using QuikChange (Stratagene), following the manufacturer’s protocol. The wild-type KasQ plasmid (BCRC12349) was used as the template for the single mutation. All mutations were confirmed by DNA sequencing. KasQ mutants were expressed and purified with the same protocol as used for the wild-type protein.
(§2) The cell stirring speed was 1000 rpm.

KasQ Q95A = KasQ Q95A (Streptomyces kasugaensis, UniProt A0A0K1H2R6, Q95A); assay: biochemical; format: binding
Description: as §1, §2

KasQ Q95E = KasQ Q95E (Streptomyces kasugaensis, UniProt A0A0K1H2R6, Q95E); assay: biochemical; format: binding
Description: as §1, §2

Chain of KasQ E308A (A0A0K1H2R6 entry or part of it E308A): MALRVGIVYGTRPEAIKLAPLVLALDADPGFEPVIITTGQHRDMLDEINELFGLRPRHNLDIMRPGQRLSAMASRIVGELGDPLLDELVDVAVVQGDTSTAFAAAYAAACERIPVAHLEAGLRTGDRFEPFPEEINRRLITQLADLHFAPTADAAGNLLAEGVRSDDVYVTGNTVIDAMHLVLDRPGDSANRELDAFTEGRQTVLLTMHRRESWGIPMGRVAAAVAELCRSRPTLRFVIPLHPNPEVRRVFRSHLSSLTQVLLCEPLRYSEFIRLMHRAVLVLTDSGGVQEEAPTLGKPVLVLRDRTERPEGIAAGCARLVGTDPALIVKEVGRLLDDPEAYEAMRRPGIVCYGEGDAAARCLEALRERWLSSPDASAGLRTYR
Chain of KasQ (A0A0K1H2R6 entry or part of it): as the sequence (A0A0K1H2R6 entry or part of it E308A) above
Chain of KasH (A0A0K1H2T0 entry or part of it): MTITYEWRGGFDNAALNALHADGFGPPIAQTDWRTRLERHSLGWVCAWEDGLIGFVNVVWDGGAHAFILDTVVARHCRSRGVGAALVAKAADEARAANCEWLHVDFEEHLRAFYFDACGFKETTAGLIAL
Chain of KasQ Q95E (A0A0K1H2R6 entry or part of it Q95E): as the sequence (A0A0K1H2R6 entry or part of it E308A) above, with Q95E counted along it
Chain of KasQ Q95A (A0A0K1H2R6 entry or part of it Q95A): as the sequence (A0A0K1H2R6 entry or part of it E308A) above, with Q95A counted along it

Structure (SMILES) | ∆G (KasQ; ITC) | ∆H (KasQ; ITC) | ∆S (KasQ; ITC) | Kd (KasQ; ITC) | other results
O=C[C@H](O)[C@@H](O)[C@@H](O)[C@H](O)CO [D-Galactose] | NBD | NBD | NBD | NBD | 
O=C(O)[C@H]1OC(O)[C@H](O)[C@@H](O)[C@@H]1O (some centres unmarked) [GlcA] | NBD | NBD | NBD | NBD | 
O=c1ccn([C@@H]2O[C@H](COP(=O)(O)OP(=O)(O)O)[C@@H](O)[C@H]2O)c(=O)[nH]1 [UDP 3] | -6.128 ± 0.5523 kcal/mol | -4.130 ± 0.5523 kcal/mol | 6.70 cal mol^−1 K^−1 |  | n (KasQ): 1.0 ± 0.0; Kd (KasQ; ITC, read-out: Kd): 32.2 ± 6.8 µM; binding affinity versus KasQ relative to UMP, UTP and TTP (KasQ; ITC, higher than that of the others): 2–5 fold
Nc1nc2c(ncn2[C@@H]2O[C@H](COP(=O)(O)OP(=O)(O)O[C@H]3O[C@H](CO)[C@@H](O)[C@H](O)[C@@H]3O)[C@@H](O)[C@H]2O)c(=O)[nH]1 [GDP-Man] | NBD | NBD | NBD | NBD | 
OC[C@H]1OC(O)[C@H](O)[C@@H](O)[C@@H]1O (stereo partly drawn) [D-Glucose] | NBD | NBD | NBD | NBD | 
CC(=O)N[C@H]1C(O)O[C@H](CO)[C@H](O)[C@@H]1O (some centres unmarked) [GalNAc] | NBD | NBD | NBD | NBD | 
O=C(O)[C@H]1OC(O)[C@H](O)[C@@H](O)[C@H]1O (some centres unmarked) [GalA] | NBD | NBD | NBD | NBD | 
Cc1cn([C@H]2C[C@H](O)[C@@H](COP(=O)(O)OP(=O)(O)OP(=O)(O)O)O2)c(=O)[nH]c1=O [TTP] | -5.128 ± 1.221 kcal/mol | -7.612 ± 1.221 kcal/mol | −8.33 cal mol^−1 K^−1 |  | n (KasQ): 1.1 ± 0.1; Kd (KasQ; ITC, read-out: Kd): 174 ± 20.2 µM
OC[C@H]1OC(O)[C@@H](O)[C@@H](O)[C@@H]1O (stereo partly drawn) [D-Mannose] | NBD | NBD | NBD | NBD | 
N[C@H]1C(O)O[C@H](CO)[C@@H](O)[C@@H]1O (some centres unmarked) [GlcNH2] | NBD | NBD | NBD | NBD | 
Nc1nc2c(ncn2[C@@H]2O[C@H](COP(=O)(O)OP(=O)(O)OC3O[C@H](CO)[C@@H](O)[C@H](O)[C@H]3O)[C@@H](O)[C@H]2O)c(=O)[nH]1 (some centres unmarked) [GDP-Glc] | NBD | NBD | NBD | NBD | 
O=c1ccn([C@@H]2O[C@H](COP(=O)(O)OP(=O)(O)OP(=O)(O)O)[C@@H](O)[C@H]2O)c(=O)[nH]1 [UTP] | -5.645 ± 1.340 kcal/mol | -9.104 ± 1.340 kcal/mol | −11.6 cal mol^−1 K^−1 |  | n (KasQ): 1.0 ± 0.0; Kd (KasQ; ITC, read-out: Kd): 71.4 ± 5.7 µM
Nc1nc2c(ncn2[C@@H]2O[C@H](COP(=O)(O)OP(=O)(O)O)[C@@H](O)[C@H]2O)c(=O)[nH]1 [GDP] | NBD | NBD | NBD | nor AMP, ADP, ATP, GMP, GDP, or GTP shows detectable binding affinity and NBD | 
CC(=O)CC(=O)SCCNC(=O)CCNC(=O)[C@H](O)C(C)(C)COP(=O)(O)OP(=O)(O)OC[C@H]1O[C@@H](n2cnc3c(N)ncnc32)[C@H](O)[C@@H]1OP(=O)(O)O [Acetoacetyl-CoA, acetoacetyl-CoA] |  |  |  |  | n (KasH): 0.5 ± 0.1; ∆G (KasH): -5.469 ± 2.477 kcal/mol; ∆H (KasH): -6.149 ± 2.477 kcal/mol; ∆S (KasH): -2.28 cal mol-1 K-1; Kd (KasH): 98 µM
CC(C)CC(=O)SCCNC(=O)CCNC(=O)[C@H](O)C(C)(C)COP(=O)(O)OP(=O)(O)OC[C@H]1O[C@@H](n2cnc3c(N)ncnc32)[C@H](O)[C@@H]1OP(=O)(O)O [Isovaleryl-CoA, isovaleryl-CoA] |  |  |  |  | n (KasH): 1.0 ± 0.7; ∆G (KasH): -5.048 ± 3.166 kcal/mol; ∆H (KasH): -3.116 ± 3.166 kcal/mol; ∆S (KasH): 6.48 cal mol-1 K-1; Kd (KasH): 199 µM
CC(C)(COP(=O)(O)OP(=O)(O)OC[C@H]1O[C@@H](n2cnc3c(N)ncnc32)[C@H](O)[C@@H]1OP(=O)(O)O)[C@@H](O)C(=O)NCCC(=O)NCCS [CoA] |  |  |  |  | n (KasH): 0.6 ± 0.0; ∆G (KasH): -5.478 ± 1.342 kcal/mol; ∆H (KasH): -7.350 ± 1.342 kcal/mol; ∆S (KasH): -6.28 cal mol-1 K-1; Kd (KasH): 96.1 µM
CC(=O)SCCNC(=O)CCNC(=O)[C@H](O)C(C)(C)COP(=O)(O)OP(=O)(O)OC[C@H]1O[C@@H](n2cnc3c(N)ncnc32)[C@H](O)[C@@H]1OP(=O)(O)O [AcCoA] |  |  |  |  | n (KasH): 1.3 ± 0.4; ∆G (KasH): -5.240 ± 8.196 kcal/mol; ∆H (KasH): -14.19 ± 8.196 kcal/mol; ∆S (KasH): -30.02 cal mol-1 K-1; Kd (KasH): 161 µM
CC(=O)N[C@H]1C(O)O[C@H](CO)[C@@H](O)[C@@H]1O (some centres unmarked) [GlcNAc] | NBD | NBD | NBD | NBD | 
CCC(=O)SCCNC(=O)CCNC(=O)[C@H](O)C(C)(C)COP(=O)(O)OP(=O)(O)OC[C@H]1O[C@@H](n2cnc3c(N)ncnc32)[C@H](O)[C@@H]1OP(=O)(O)O [Propionyl-CoA, propionyl-CoA] |  |  |  |  | n (KasH): 0.5 ± 0.0; ∆G (KasH): -6.081 ± 0.3918 kcal/mol; ∆H (KasH): -7.351 ± 0.3918 kcal/mol; ∆S (KasH): -4.26 cal mol-1 K-1; Kd (KasH): 35 µM
Nc1nc2c(ncn2[C@@H]2O[C@H](COP(=O)(O)OP(=O)(O)OP(=O)(O)O)[C@@H](O)[C@H]2O)c(=O)[nH]1 [GTP] | NBD | NBD | NBD | nor AMP, ADP, ATP, GMP, GDP, or GTP shows detectable binding affinity and NBD | 
Cc1cn([C@H]2C[C@H](O)[C@@H](COP(=O)(O)OP(=O)(O)O[C@H]3O[C@H](CO)[C@@H](O)[C@H](O)[C@H]3O)O2)c(=O)[nH]c1=O [TDP-Glc] | -6.273 ± 0.2773 kcal/mol | -4.568 ± 0.2773 kcal/mol | 5.72 cal mol^−1 K^−1 |  | n (KasQ): 0.3 ± 0.0; Kd (KasQ; ITC, read-out: Kd): 25.1 ± 0.2 µM
CC(=O)N[C@H]1[C@@H](OP(=O)(O)OP(=O)(O)OC[C@H]2O[C@@H](n3ccc(=O)[nH]c3=O)[C@H](O)[C@@H]2O)O[C@H](CO)[C@H](O)[C@@H]1O [UDP-GalNAc] | -4.742 ± 1.700 kcal/mol | -3.418 ± 1.700 kcal/mol | 4.44 cal mol^−1 K^−1 |  | n (KasQ): 1.8 ± 0.4
Nc1nc2c(ncn2[C@@H]2O[C@H](COP(=O)(O)O)[C@@H](O)[C@H]2O)c(=O)[nH]1 [GMP] | NBD | NBD | NBD | nor AMP, ADP, ATP, GMP, GDP, or GTP shows detectable binding affinity and NBD | 
O=c1ccn([C@@H]2O[C@H](COP(=O)(O)O)[C@@H](O)[C@H]2O)c(=O)[nH]1 [UMP] | -13.19 ± 1.245 kcal/mol | -9.254 ± 1.245 kcal/mol |  |  | n (KasQ): 1.0 ± 0.0; Kd (KasQ; ITC, read-out: Kd): 124 ± 70.9 µM
O=C(O)[C@H]1O[C@H](OP(=O)(O)OP(=O)(O)OC[C@H]2O[C@@H](n3ccc(=O)[nH]c3=O)[C@H](O)[C@@H]2O)[C@H](O)[C@@H](O)[C@@H]1O [UDP-GlcA] | -5.61 ± 0.5751 kcal/mol | -1.376 ± 0.5751 kcal/mol | 14.2 cal mol^−1 K^−1 |  | Kd (KasQ E308A): 106 µM; n (KasQ E308A; ITC binding stoichiometry, KasQ mutant E308A): 1.1 ± 0.7; ∆G (KasQ E308A; ITC, KasQ mutant E308A): -5.421 ± 3.692 kcal/mol; ∆H (KasQ E308A; ITC, KasQ mutant E308A): -3.194 ± 3.692 kcal/mol; ∆S (KasQ E308A; ITC, KasQ mutant E308A): 7.47 cal mol-1 K-1; Kd (KasQ Q95A): 44.4 µM; n (KasQ Q95A; ITC binding stoichiometry, KasQ mutant Q95A): 1.7 ± 0.0; ∆G (KasQ Q95A; ITC, KasQ mutant Q95A): -5.922 ± 0.0847 kcal/mol; ∆H (KasQ Q95A; ITC, KasQ mutant Q95A): -0.6748 ± 0.0847 kcal/mol; ∆S (KasQ Q95A; ITC, KasQ mutant Q95A): 17.6 cal mol-1 K-1; Kd (KasQ Q95E): 11.8 µM; n (KasQ Q95E; ITC binding stoichiometry, KasQ mutant Q95E): 2.1 ± 0.1; ∆G (KasQ Q95E; ITC, KasQ mutant Q95E): -7.15 ± 0.0195 kcal/mol; ∆H (KasQ Q95E; ITC, KasQ mutant Q95E): -0.4413 ± 0.0195 kcal/mol; ∆S (KasQ Q95E; ITC, KasQ mutant Q95E): 22.5 cal mol-1 K-1; n (KasQ): 1.5 ± 0.2; Kd (KasQ; ITC, read-out: Kd): 76.3 ± 15.2 µM
Nc1ncnc2c1ncn2[C@@H]1O[C@H](COP(=O)(O)OP(=O)(O)OP(=O)(O)O)[C@@H](O)[C@H]1O [ATP] | NBD | NBD | NBD | nor AMP, ADP, ATP, GMP, GDP, or GTP shows detectable binding affinity and NBD | 
CC(=O)NC1=CO[C@H](CO)[C@@H](O)[C@@H]1O [AAG 2, 2-acetamidoglucal] | NBD | NBD | NBD | NBD | Kd (KasQ; ITC, listed as AAG): no binding affinity
Nc1ncnc2c1ncn2[C@@H]1O[C@H](COP(=O)(O)O)[C@@H](O)[C@H]1O [AMP] | NBD | NBD | NBD | nor AMP, ADP, ATP, GMP, GDP, or GTP shows detectable binding affinity and NBD | 
Nc1ncnc2c1ncn2[C@@H]1O[C@H](COP(=O)(O)OP(=O)(O)O)[C@@H](O)[C@H]1O [ADP] | NBD | NBD | NBD | nor AMP, ADP, ATP, GMP, GDP, or GTP shows detectable binding affinity and NBD | 
